Test results published in paper PMC8963331 (Toxicological Sciences, 2022).
Entries after “also recorded” stand apart in the source; their conditions may differ.

Legend:
[1] = Rat repeat-dose toxicity studies: plasma toxicokinetics; format: in vivo; conditions: for AUC(0-t) / Cmax: plasma, po; for AUC(0-t) / Cmax / Mean Cave: last day of dosing; for Cmax: Mean Cmax
[2] = Dog repeat-dose toxicity studies: plasma toxicokinetics; format: in vivo
[3] = Rat fertility and early embryonic development; format: in vivo; conditions: both, Sprague-Dawley (Crl:CD), rat, in vivo, oral
[4] = test system: Crl:CD Sprague Dawley (SD) rats; experiment: Rat fertility and early embryonic development; format: in vivo; conditions: for Fertility index / Mating index / Pregnancy rate / Females mated: rat FEED; for Females mated: 22 females paired
[5] = Rat EFD study: maternal and fetal plasma toxicokinetics; format: in vivo
[6] = Rabbit EFD study: maternal and fetal plasma toxicokinetics; format: in vivo
[7] = test system: JAK1, JAK2, JAK3, and TYK2; experiment: Human cellular JAK IC50; format: cell-based; conditions: corrected with human plasma protein binding of 85.4%
[8] = Human plasma protein binding; format: in vitro ADME
[9] = test system: JAK1, JAK2, JAK3, and TYK2; conditions: ref Sandborn et al., 2020; cited from earlier work
[10] = mice; 10 mg/kg oral; ref Sandborn et al., 2020; cited from earlier work
[11] = maternal rat, 30 and 100 mg/kg/day
[12] = maternal rat, GD 17, 1000 mg/kg/day
[13] = maternal rabbit, GD 19, 30 and 60 mg/kg/day

## Cc1cc(Nc2cc3ncccc3c(N[C@@H]3C[C@H]4CC[C@@H](C3)N4CCC#N)n2)n[nH]1 [izencitinib, Izencitinib]
[1]; female, Sprague-Dawley (Crl:CD), rat, 30 mg/kg/day, Mean AUC0–24, rat female, 30 mg/kg/day oral, 26 weeks
  AUC(0-t): 16.7 ng·h/mL
[1]; female, Sprague-Dawley (Crl:CD), rat, 30 mg/kg/day, rat female, 30 mg/kg/day oral, 26 weeks
  Cmax: 6.02 ng/mL
[1]; female, Sprague-Dawley (Crl:CD), rat, 100 mg/kg/day, Mean AUC0–24, rat female, 100 mg/kg/day oral, 26 weeks
  AUC(0-t): 127 ng·h/mL
[1]; female, Sprague-Dawley (Crl:CD), rat, 100 mg/kg/day, rat female, 100 mg/kg/day oral, 26 weeks
  Cmax: 32.5 ng/mL
[1]; female, Sprague-Dawley (Crl:CD), rat, 1000 mg/kg/day, Mean AUC0–24, rat female, 1000 mg/kg/day oral, 26 weeks
  AUC(0-t): 453 ng·h/mL
[1]; female, Sprague-Dawley (Crl:CD), rat, 1000 mg/kg/day, rat female, 1000 mg/kg/day oral, 26 weeks
  Cmax: 96.3 ng/mL
[1]; female, Sprague-Dawley, rat, 30 mg/kg/day, Mean AUC0–24, rat female, 30 mg/kg/day oral, 4 weeks
  AUC(0-t): 25.7 ng·h/mL
[1]; female, Sprague-Dawley, rat, 30 mg/kg/day, Mean AUC0–24, rat female, 30 mg/kg/day oral, 13 weeks
  AUC(0-t): 54.6 ng·h/mL
[1]; female, Sprague-Dawley, rat, 100 mg/kg/day, Mean AUC0–24, rat female, 100 mg/kg/day oral, 4 weeks
  AUC(0-t): 70.5 ng·h/mL
[1]; female, Sprague-Dawley, rat, 100 mg/kg/day, Mean AUC0–24, rat female, 100 mg/kg/day oral, 13 weeks
  AUC(0-t): 227 ng·h/mL
[1]; female, Sprague-Dawley, rat, 1000 mg/kg/day, Mean AUC0–24, rat female, 1000 mg/kg/day oral, 4 weeks
  AUC(0-t): 384 ng·h/mL
[1]; male, Sprague-Dawley (Crl:CD), rat, 30 mg/kg/day, Mean AUC0–24, rat male, 30 mg/kg/day oral, 26 weeks
  AUC(0-t): 34.6 ng·h/mL
[1]; male, Sprague-Dawley (Crl:CD), rat, 30 mg/kg/day, rat male, 30 mg/kg/day oral, 26 weeks
  Cmax: 4.52 ng/mL
[1]; male, Sprague-Dawley (Crl:CD), rat, 100 mg/kg/day, Mean AUC0–24, rat male, 100 mg/kg/day oral, 26 weeks
  AUC(0-t): 95.7 ng·h/mL
[1]; male, Sprague-Dawley (Crl:CD), rat, 100 mg/kg/day, rat male, 100 mg/kg/day oral, 26 weeks
  Cmax: 15.8 ng/mL
[1]; male, Sprague-Dawley (Crl:CD), rat, 1000 mg/kg/day, Mean AUC0–24, rat male, 1000 mg/kg/day oral, 26 weeks
  AUC(0-t): 384 ng·h/mL
[1]; male, Sprague-Dawley (Crl:CD), rat, 1000 mg/kg/day, rat male, 1000 mg/kg/day oral, 26 weeks
  Cmax: 60.6 ng/mL
[1]; male, Sprague-Dawley, rat, 30 mg/kg/day, Mean AUC0–24, rat male, 30 mg/kg/day oral, 4 weeks
  AUC(0-t): 23.4 ng·h/mL
[1]; male, Sprague-Dawley, rat, 30 mg/kg/day, Mean AUC0–24, rat male, 30 mg/kg/day oral, 13 weeks
  AUC(0-t): 58.2 ng·h/mL
[1]; male, Sprague-Dawley, rat, 100 mg/kg/day, Mean AUC0–24, rat male, 100 mg/kg/day oral, 4 weeks
  AUC(0-t): 71.3 ng·h/mL
[1]; male, Sprague-Dawley, rat, 100 mg/kg/day, Mean AUC0–24, rat male, 100 mg/kg/day oral, 13 weeks
  AUC(0-t): 131 ng·h/mL
[1]; male, Sprague-Dawley, rat, 1000 mg/kg/day, Mean AUC0–24, rat male, 1000 mg/kg/day oral, 4 weeks
  AUC(0-t): 335 ng·h/mL
[1]; male, Sprague-Dawley, rat, 1000 mg/kg/day, Mean AUC0–24, rat male, 1000 mg/kg/day oral, 13 weeks
  AUC(0-t): 452 ng·h/mL
[1]; rat 26-week study, 1000 mg/kg/day, vs human 300 mg QD
  nonclinical:clinical systemic AUC margin at the NOAEL: 8 fold
[1]; rat female, 30 mg/kg/day oral, 4 weeks
  Mean Cave: 1.07 ng/mL
[1]; rat female, 30 mg/kg/day oral, 13 weeks
  Mean Cave: 2.28 ng/mL
[1]; rat female, 30 mg/kg/day oral, 26 weeks
  Mean Cave: 0.700 ng/mL
[1]; rat female, 100 mg/kg/day oral, 4 weeks
  Mean Cave: 2.94 ng/mL
[1]; rat female, 100 mg/kg/day oral, 13 weeks
  Mean Cave: 9.46 ng/mL
[1]; rat female, 100 mg/kg/day oral, 26 weeks
  Mean Cave: 5.29 ng/mL
[1]; rat female, 1000 mg/kg/day oral, 4 weeks
  Mean Cave: 16.0 ng/mL
[1]; rat female, 1000 mg/kg/day oral, 13 weeks
  Mean Cave: 63.8 ng/mL
[1]; rat female, 1000 mg/kg/day oral, 26 weeks
  Mean Cave: 18.9 ng/mL
[1]; rat male, 30 mg/kg/day oral, 4 weeks
  Mean Cave: 0.975 ng/mL
[1]; rat male, 30 mg/kg/day oral, 13 weeks
  Mean Cave: 2.43 ng/mL
[1]; rat male, 30 mg/kg/day oral, 26 weeks
  Mean Cave: 1.44 ng/mL
[1]; rat male, 100 mg/kg/day oral, 4 weeks
  Mean Cave: 2.97 ng/mL
[1]; rat male, 100 mg/kg/day oral, 13 weeks
  Mean Cave: 5.46 ng/mL
[1]; rat male, 100 mg/kg/day oral, 26 weeks
  Mean Cave: 3.99 ng/mL
[1]; rat male, 1000 mg/kg/day oral, 4 weeks
  Mean Cave: 14.0 ng/mL
[1]; rat male, 1000 mg/kg/day oral, 13 weeks
  Mean Cave: 18.8 ng/mL
[1]; rat male, 1000 mg/kg/day oral, 26 weeks
  Mean Cave: 16.0 ng/mL
[1]; rat, 30 mg/kg/day
  plasma Cave:protein-corrected JAK IC50 ratio: < 1 ×
  plasma Cave:uncorrected JAK IC50 ratio: < 1 ×
[1]; rat, 100 mg/kg/day
  plasma concentrations versus uncorrected human JAK IC50 threshold: only briefly rose above
[1]; rat, 1000 mg/kg/day
  plasma Cave:protein-corrected JAK IC50 ratio: < 1
  plasma Cave:uncorrected JAK IC50 ratio: 1–3 ×
[2]; dog 39-week study, 30 mg/kg/day, vs human 300 mg QD
  nonclinical:clinical systemic AUC margin at the NOAEL: 8 fold
[2]; dog female, 10 mg/kg/day oral, 4 weeks, last day of dosing
  Mean Cave: 1.90 ng/mL
[2]; dog female, 10 mg/kg/day oral, 13 weeks, last day of dosing
  Mean Cave: 1.53 ng/mL
[2]; dog female, 10 mg/kg/day oral, 39 weeks, last day of dosing
  Mean Cave: 3.11 ng/mL
[2]; dog female, 30 mg/kg/day oral, 4 weeks, last day of dosing
  Mean Cave: 14.8 ng/mL
[2]; dog female, 30 mg/kg/day oral, 13 weeks, last day of dosing
  Mean Cave: 10.8 ng/mL
[2]; dog female, 30 mg/kg/day oral, 39 weeks, last day of dosing
  Mean Cave: 20.5 ng/mL
[2]; dog female, 100 mg/kg/day oral, 13 weeks, last day of dosing
  Mean Cave: 96.7 ng/mL
[2]; dog female, 100 mg/kg/day oral, 39-week study, week 28 (day 197)
  Mean Cave: 131 ng/mL
[2]; dog male, 10 mg/kg/day oral, 4 weeks, last day of dosing
  Mean Cave: 2.30 ng/mL
[2]; dog male, 10 mg/kg/day oral, 13 weeks, last day of dosing
  Mean Cave: 1.61 ng/mL
[2]; dog male, 10 mg/kg/day oral, 39 weeks, last day of dosing
  Mean Cave: 2.08 ng/mL
[2]; dog male, 30 mg/kg/day oral, 4 weeks, last day of dosing
  Mean Cave: 19.1 ng/mL
[2]; dog male, 30 mg/kg/day oral, 13 weeks, last day of dosing
  Mean Cave: 12.5 ng/mL
[2]; dog male, 30 mg/kg/day oral, 39 weeks, last day of dosing
  Mean Cave: 15.9 ng/mL
[2]; dog male, 100 mg/kg/day oral, 13 weeks, last day of dosing
  Mean Cave: 190 ng/mL
[2]; dog male, 100 mg/kg/day oral, 39-week study, week 28 (day 197)
  Mean Cave: 69.6 ng/mL
[2]; dog, 10 mg/kg/day
  plasma Cave:protein-corrected JAK IC50 ratio: < 1 ×
  plasma Cave:uncorrected JAK IC50 ratio: < 1 ×
[2]; dog, 30 mg/kg/day
  plasma Cave:protein-corrected JAK IC50 ratio: < 1 ×
  plasma Cave:uncorrected JAK IC50 ratio: 1 ×
  time within the therapeutic range: 6 to 9 h
[2]; dog, 100 mg/kg/day
  plasma Cave:protein-corrected JAK IC50 ratio: 1–2 ×
  plasma Cave:uncorrected JAK IC50 ratio: 7–11 ×
[2]; dog, 100 mg/kg/day, all studies
  time at supratherapeutic plasma concentrations: up to 24 h
[2]; dog, ≥100 mg/kg/day
  plasma Cave:uncorrected JAK IC50 ratio: ≥ 7 ×
[3]
  NOAEL: 1000 mg/kg/day
[4]; 30 mg/kg/day oral
  Fertility index: 90.9%
  Mating index: 100.0%
  Pregnancy rate: 90.9%
  Females mated: 22 n
[4]; 100 mg/kg/day oral
  Females mated: 21 n
[4]; 1000 mg/kg/day oral
  Fertility index: 95.2%
  Mating index: 95.5%
  Pregnancy rate: 90.9%
  Females mated: 21 n
[4]; rat, up to 1000 mg/kg/day
  effect on male or female fertility: did not affect; also recorded: No effects
[5]; [11]
  Cave:protein-corrected IC50 ratio: < 1 ×
  Cave:uncorrected IC50 ratio: < 1 ×
[5]; maternal rat, GD 6, 30 mg/kg/day oral
  Mean Cave: 0.613 ng/mL
[5]; maternal rat, GD 6, 100 mg/kg/day oral
  Mean Cave: 2.15 ng/mL
[5]; maternal rat, GD 6, 1000 mg/kg/day oral
  Mean Cave: 16.2 ng/mL
[5]; maternal rat, GD 17, 30 mg/kg/day oral
  Mean Cave: 0.663 ng/mL
[5]; maternal rat, GD 17, 100 mg/kg/day oral
  Mean Cave: 2.88 ng/mL
[5]; [12]
  plasma Cave:protein-corrected JAK IC50 ratio: < 1 ×
  plasma Cave:uncorrected JAK IC50 ratio: 2 ×
  time at supratherapeutic plasma levels: 12 to 15 h
[5]; maternal rat, GD 17, 1000 mg/kg/day oral
  Mean Cave: 23.8 ng/mL
[5]; rat EFD study, 1000 mg/kg/day, vs human 300 mg QD
  nonclinical:clinical AUC ratio at the NOAEL: 10 fold
[5]; rat fetuses, below lower limit of quantitation
  fetal plasma concentrations, all other samples: < 1 ng/mL
[5]; rat, fetal plasma, oral, 1000 mg/kg/day
  concentration at 3 h: 1.18 ng/mL
[6]; maternal rabbit, 10 mg/kg/day
  plasma Cave:protein-corrected JAK IC50 ratio: < 1 ×
  plasma Cave:uncorrected JAK IC50 ratio: < 1 ×
[6]; maternal rabbit, GD 7, 10 mg/kg/day oral
  Mean Cave: 0.365 ng/mL
[6]; maternal rabbit, GD 7, 30 mg/kg/day oral
  Mean Cave: 3.28 ng/mL
[6]; maternal rabbit, GD 7, 60 mg/kg/day oral
  Mean Cave: 21.8 ng/mL
[6]; maternal rabbit, GD 19, 10 mg/kg/day oral
  Mean Cave: 0.754 ng/mL
[6]; maternal rabbit, GD 19, 30 mg/kg/day
  plasma Cave:uncorrected JAK IC50 ratio: 1 ×
[6]; maternal rabbit, GD 19, 30 mg/kg/day oral
  Mean Cave: 18.7 ng/mL
[6]; maternal rabbit, GD 19, 60 mg/kg/day
  plasma Cave:uncorrected JAK IC50 ratio: 6 ×
[6]; maternal rabbit, GD 19, 60 mg/kg/day oral
  Mean Cave: 76.7 ng/mL
[6]; [13]
  plasma Cave:protein-corrected JAK IC50 ratios: < 1 ×
  time at supratherapeutic plasma levels: 6 to 9 h
[6]; rabbit EFD study, 60 mg/kg/day, vs human 300 mg QD
  nonclinical:clinical AUC ratio at the NOAEL: 33 fold
[6]; rabbit fetuses, undetectable, limit of quantitation
  fetal plasma concentrations, all other samples: < 1 ng/mL
[6]; rabbit, fetal plasma, oral, 60 mg/kg/day
  concentration at 3 h: 1.55 ng/mL
[7]
  human cellular JAK IC50 range, human plasma protein binding corrected: 87.18 to 550.1 ng/mL
[8]
  fraction unbound: 0.146
[9]
  human cellular JAK IC50 range, uncorrected: 12.73 to 80.31 ng/mL
[10]
  colon:plasma AUC ratio: 3883
